Experiment [1] concerns phosphorylation of ERK, KRAS G12V in SW620. In words: pERK inhibition assay. Type of experiment: cell-based. To be noted: Homo sapiens, SW-620, 4 h, SW620 cells. Put shortly:
(§1)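 Phospho-ERK quantified by in-cell ELISA with TMB read-out at OD450 following 4 h compound exposure (final 0.5% DMSO). Cell lines were SW620 (KRAS G12V), AGS (G12D) and NCI-H358 (G12C), grown in RPMI-1640 with 10% FBS. A 4-parameter sigmoidal model gave the IC50.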

Experiment [2] deals with phosphorylation of ERK, KRAS G12C in NCI-H358 cells. Description: pERK inhibition assay. Type of experiment: cell-based. As to conditions: Homo sapiens, NCI-H358, 4 h. The method, boiled down: as §1
Experiment [3] deals with phosphorylation of ERK, KRAS G12D in AGS cells. In words: pERK inhibition assay. As to conditions: Homo sapiens, AGS, 4 h. The format is cell-based. The method, boiled down:
as §1

Experiment [4] has as its system NCI-H358 cells (KRAS G12C). In words: Cell viability assay (Cell Counting Kit-8, 3-day). The format is cell-based, human. To be noted: Homo sapiens, NCI-H358, 72 h, NCI-H358, 72 hrs incubation. The method, boiled down: (§2)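 IC50 derived by 4-parameter sigmoidal fit of CCK-8 signal (OD450−OD650, 2 h development) after 72 h compound exposure in 0.5% DMSO. Seeding density was 5,000 cells/well for NCI-H358 and 2,000 cells/well for AGS and SW620, plated overnight before dosing.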

The subject of experiment [5] is AGS cells (KRAS G12D). Description: Cell viability assay (Cell Counting Kit-8, 3-day). The format is cell-based, human. As to conditions: Homo sapiens, 72 h, 72 hrs incubation. Put shortly:
as §2
(In general: Formazan colour is commonly taken as a measure of viable cells.)

Experiment [6] concerns SW620 cells (KRAS G12V). Description: Cell viability assay (Cell Counting Kit-8, 3-day). Type of experiment: cell-based, human. To be noted: Homo sapiens, SW-620; SW620, 72 hrs incubation. The method, boiled down:
as §2

The target in experiment [7] is KRAS G12C-BRAF complex (Homo sapiens (Human), UniProt P01116+P62937, G12C). In words: KRAS-BRAF with CYPA (500 nM) interaction assay (TR-FRET, Example 136). Type of experiment: biochemical. To be noted: KRAS G12C-BRAF disruption. How it is done: In this example, TR-FRET was also used to measure the compound or compound-CYPA dependent disruption of the KRAS G12C-BRAF complex. This protocol was also used to measure disruption of KRAS G12D or KRAS G12V binding to BRAF by a compound of the invention, respectively. In assay buffer containing 25 mM HEPES PH=7.4 (4-(2-hydroxyethyl)-1-piperazineethanesulfonic acid, Thermo, 15630080), 0.002% Tween20, 0.1% BSA, 100 mM NaCl, 5 mM MgCl2, 10 μM GMPPNP (Guanosine 5′-[β,γ-imido]triphosphate trisodium salt hydrate, Sigma, G0635), […] 384-well assay plate at final concentrations of 50 nM, 6.25 nM and 1 nM, respectively. Compound was present in plate wells as a 16-point 3-fold dilution series starting at a final concentration of 10 μM and incubated for 3 hours. A mixture of MAb Anti-6His-XL665 (Cisbio, 61HISXLB) and Mab anti-GST-TB cryptate (Cisbio, 61GSTTLB) was then added at a final concentration of 6.67 nM and 0.21 nM, respectively, and the plate was incubated for an additional 1.5 hours. TR-FRET signal was read on a PHERstar FSX microplate reader (Ex320 nm, Em 665/615 nm). Compounds that facilitate disruption of the KRAS-BRAF complex were identified as those eliciting a decrease in the TR-FRET ratio relative to DMSO control wells.
For orientation: TR-FRET usually uses a lanthanide donor and a delayed reading to cut background.

The structures appear in SMILES notation.

Data on seven molecules can be found in US20240417410A1, “TRICYCLIC COMPOUNDS FOR THE TREATMENT OF CANCER” (Hoffmann-La Roche Inc., priority 2023, published 2024).

Sequence of KRAS G12C-BRAF complex (P01116-2 other isoform, or with tags, fused parts or gaps G12C): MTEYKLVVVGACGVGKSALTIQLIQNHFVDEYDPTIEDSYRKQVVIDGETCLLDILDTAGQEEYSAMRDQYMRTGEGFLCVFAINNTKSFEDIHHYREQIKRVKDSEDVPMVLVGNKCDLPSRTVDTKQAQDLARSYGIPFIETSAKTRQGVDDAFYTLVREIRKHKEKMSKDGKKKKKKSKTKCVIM
Sequence of KRAS G12C-BRAF complex (P62937 whole entry): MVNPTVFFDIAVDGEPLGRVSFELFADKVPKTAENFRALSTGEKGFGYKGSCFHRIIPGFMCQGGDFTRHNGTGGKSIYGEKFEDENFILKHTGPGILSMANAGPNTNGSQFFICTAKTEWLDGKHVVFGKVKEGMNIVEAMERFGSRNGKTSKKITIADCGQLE

As for `CO[C@@H](C)c1ncc(N2CCN(CC(F)(F)F)CC2)cc1-c1c2c3cc(cc4c3n1CCO4)-c1csc(n1)C[C@H](NC(=O)[C@H]1C[C@@H]1C)C(=O)N1CCC[C@H](N1)C(=O)OCC(C)(C)C2` (atropisomer, axis not shown; (M)) [Example 5, (1S,2S)-N-[(7S,13S)-(20M)-20-[2-[(1S)-1-methoxyethyl]-5-[4-(2,2,2-trifluoroethyl)piperazin-1-yl]-3-pyridyl]-17,17-dimethyl-8,14-dioxo-15,24-dioxa-4-thia-9,21,30,31-tetrazahexacyclo[23.3.1.1^2,5.1^9,13.0^19,27.0^21,26]hentriaconta-1 (28),2,5 (31), 19,25 (29),26-hexaen-7-yl]-2-methyl-cyclopropanecarboxamide], the IC50 in experiment [1] amounted to 2.8 nM; in experiment [2], 6.2 nM; in experiment [3], 21.2 nM; in experiment [4] it was 17.3 nM; in experiment [5], 70 nM; in experiment [6] it was 4.6 nM. It took 34.8 nM to reach half-maximal inhibition in experiment [7] (IC50).

In the case of `CO[C@@H](C)c1ncc(N2CCOCC2)cc1-c1c2c3cc(cc4c3n1CCC4)-c1csc(n1)C[C@H](NC(=O)[C@H]1C[C@@H]1C(F)F)C(=O)N1CCC[C@H](N1)C(=O)OCC(C)(C)C2` (atropisomer, axis not shown; (M)) [Example 6, (1S,2S)-2-(difluoromethyl)-N-[(7S,13S)-(20M)-20-[2-[(1S)-1-methoxyethyl]-5-morpholino-3-pyridyl]-17,17-dimethyl-8,14-dioxo-15-oxa-4-thia-9,21,30,31-tetrazahexacyclo[23.3.1.1^2,5.1^9,13.0^19,27.0^21,26]hentriaconta-1 (28),2,5 (31), 19,25 (29),26-hexaen-7-yl]cyclopropanecarboxamide], the IC50 in experiment [1] was 0.8 nM; in experiment [2], 1.4 nM; in experiment [3], 5.6 nM; in experiment [4] it was 3 nM; in experiment [5] it was 19.4 nM; in experiment [6], 1.6 nM. In experiment [7], 11.1 nM corresponded to half-maximal inhibition (IC50).

Turning to `CO[C@@H](C)c1ncc(N2CCOCC2)cc1-c1c2c3cc(cc4c3n1CCC4)-c1csc(n1)C[C@H](NC(=O)[C@H]1[C@@H]3COC[C@@H]31)C(=O)N1CCC[C@H](N1)C(=O)OCC(C)(C)C2` (atropisomer, axis not shown; (M)) [Example 7, (1S,5R,6r)-N-[(7S,13S)-(20M)-20-[2-[(1S)-1-methoxyethyl]-5-morpholino-3-pyridyl]-17,17-dimethyl-8,14-dioxo-15-oxa-4-thia-9,21,30,31-tetrazahexacyclo[23.3.1.1^2,5.1^9,13.0^19,27.0^21,26]hentriaconta-1 (28),2,5 (31), 19,25 (29),26-hexaen-7-yl]-3-oxabicyclo[3.1.0]hexane-6-carboxamide], the IC50 in experiment [1] stood at 1.2 nM; in experiment [2], 1.6 nM; in experiment [3] it was 7.9 nM; in experiment [4] it was 2.4 nM; in experiment [5], 13.1 nM; in experiment [6], 0.8 nM. This molecule also registered an IC50 in experiment [7] of 9.4 nM.

Consider `CO[C@@H](C)c1ncc(N2CCOCC2)cc1-c1c2c3cc(cc4c3n1CCO4)-c1csc(n1)C[C@H](NC(=O)[C@H]1C[C@@H]1C)C(=O)N1CCC[C@H](N1)C(=O)OCC(C)(C)C2` (atropisomer, axis not shown; (M)) [Example 8, (1S,2S)-N-[(7S,13S)-(20M)-20-[2-[(1S)-1-methoxyethyl]-5-morpholino-3-pyridyl]-17,17-dimethyl-8,14-dioxo-15,24-dioxa-4-thia-9,21,30,31-tetrazahexacyclo[23.3.1.1^2,5.1^9,13.0^19,27.0^21,26]hentriaconta-1 (28),2,5 (31), 19,25 (29),26-hexaen-7-yl]-2-methyl-cyclopropanecarboxamide], for which the IC50 in experiment [1] was 1.2 nM; in experiment [2], 2.6 nM; in experiment [3], 7.1 nM; in experiment [4], 5.9 nM; in experiment [5], 18.7 nM; in experiment [6], 1.1 nM. The molecule also came in with an IC50 in experiment [7] of 23.7 nM.

On to `CO[C@@H](C)c1ncc(N2CCOCC2)cc1-c1c2c3cc(cc4c3n1CCO4)-c1csc(n1)C[C@H](NC(=O)[C@H]1C[C@@H]1C(F)F)C(=O)N1CCC[C@H](N1)C(=O)OCC(C)(C)C2` (atropisomer, axis not shown; (M)) [Example 9, (1S,2S)-2-(difluoromethyl)-N-[(7S,13S)-(20M)-20-[2-[(1S)-1-methoxyethyl]-5-morpholino-3-pyridyl]-17,17-dimethyl-8,14-dioxo-15,24-dioxa-4-thia-9,21,30,31-tetrazahexacyclo[23.3.1.1^2,5.1^9,13.0^19,27.0^21,26]hentriaconta-1 (28),2,5 (31), 19,25 (29),26-hexaen-7-yl]cyclopropanecarboxamide], for which the IC50 in experiment [1] is 0.8 nM; in experiment [2] it was 2.3 nM; in experiment [3], 1.8 nM; in experiment [4], 2.8 nM; in experiment [5], 7.6 nM; in experiment [6], less than 0.6 nM. In experiment [7], this molecule returned an IC50 of 21.1 nM.

With `CO[C@@H](C)c1ncc(N2CCOCC2)cc1-c1c2c3cc(cc4c3n1CCO4)-c1csc(n1)C[C@H](NC(=O)[C@H]1[C@@H]3COC[C@@H]31)C(=O)N1CCC[C@H](N1)C(=O)OCC(C)(C)C2` (atropisomer, axis not shown; (M)) [Example 10, (1S,5R,6r)-N-[(7S,13S)-(20M)-20-[2-[(1S)-1-methoxyethyl]-5-morpholino-3-pyridyl]-17,17-dimethyl-8,14-dioxo-15,24-dioxa-4-thia-9,21,30,31-tetrazahexacyclo[23.3.1.1^2,5.1^9,13.0^19,27.0^21,26]hentriaconta-1 (28),2,5 (31), 19,25 (29),26-hexaen-7-yl]-3-oxabicyclo[3.1.0]hexane-6-carboxamide], the IC50 is 1.2 nM in experiment [1]; 3.3 nM in experiment [2]; 1.4 nM in experiment [3]; 2.2 nM in experiment [4]; 4.6 nM in experiment [5]; less than 0.6 nM in experiment [6]. This molecule also showed an IC50 in experiment [7] of 5.9 nM.

With `CO[C@@H](C)c1ncc(N2CCN(CC(F)(F)F)CC2)cc1-c1c2c3cc(cc4c3n1CCO4)-c1csc(n1)C[C@H](NC(=O)[C@H]1C[C@@H]1C(F)F)C(=O)N1CCC[C@H](N1)C(=O)OCC(C)(C)C2` (atropisomer, axis not shown; (M)) [Example 11, (1S,2S)-2-(difluoromethyl)-N-[(7S,13S)-(20M)-20-[2-[(1S)-1-methoxyethyl]-5-[4-(2,2,2-trifluoroethyl)piperazin-1-yl]-3-pyridyl]-17,17-dimethyl-8,14-dioxo-15,24-dioxa-4-thia-9,21,30,31-tetrazahexacyclo[23.3.1.1^2,5.1^9,13.0^19,27.0^21,26]hentriaconta-1 (28),2,5 (31),19,25 (29),26-hexaen-7-yl]cyclopropanecarboxamide], the IC50 in experiment [1] worked out at 0.8 nM; in experiment [2], 5.1 nM; in experiment [3], 2.9 nM; in experiment [4], 18.8 nM; in experiment [5], 38.4 nM; in experiment [6], 2.4 nM. Further, in experiment [7], the IC50 amounted to 12.4 nM.

One may read the IC50 as the concentration that gives 50% inhibition. A lower IC50 goes with higher potency.
